Results from patent US12559573B2, “Biotin-specific monoclonal antibody and use thereof” (Roche Diagnostics Operations, Inc., priority 2016, dated 2026).

Assay: Biotin interference in Elecsys TSH sandwich assay
Conditions: control reagent without anti-biotin antibody
Method: The control sample for the Elecsys TSH assay, PreciControl Universal 2 is spiked with rising concentrations of biotin (e.g. 0, 100 and 200 ng/mL final concentration of biotin). Reagent 2 of the Elecsys TSH sales kit containing the anti TSH detection-antibody is used in a unmodified version (control), and a modified version, additionally containing 300 μg/mL of an monoclonal anti Biotin antibody according to the invention. The sandwich assay is performed according to the routine assay protocol for the Elecsys TSH assay: Shortly, 50 μL of Sample (PreciControl Universal 2 with or without biotin) are incubated with 60 μL of Reagent 1 of the Elecsys TSH kit containing the biotinylated anti-TSH antibody and 50 μL of Reagent 2 containing the ruthenylated anti-TSH antibody with or without further addition of 300 μg/mL of the monoclonal anti Biotin antibody. After incubation at 37° C. for 9 min, 40 μL suspension of streptavidin coated magnetic beads of the Elecsys TSH kit are added, the reaction is incubated for another 9 min and finally the reaction mixture is aspirated into the measuring cell where the microparticles are magnetically captured onto the surface of the electrode. Unbound substances are then removed with ProCell. Application of a voltage to the electrode then induces electrochemiluminescense-based emission of light which is measured by a photomultiplier.

## O=C(O)CCCC[C@@H]1SC[C@@H]2NC(=O)N[C@@H]21 [biotin, 5-[(3aS,4S,6aR)-2-oxo-1,3,3a,4,6,6a-hexahydrothieno[3,4-d]imidazol-4-yl]pentanoic acid]
100 ng/mL biotin in sample
  Signal relative to reference signal (sample without biotin): 53%
200 ng/mL biotin in sample
  Signal relative to reference signal (sample without biotin): 16%
